Data: patent US4639509A, “[16,19-Di-alanine] calcitonin” (Armour Pharmaceutical Company, priority 1985, dated 1987)
Bridge positions count the residues as written; N and C are the ends. Peptide text beside a SMILES is read from it.

Assays:
[1] = system: serum calcium concentration
Description: Rats were divided into four groups of seven animals, and each group was assigned at random to a dose of standard or test solution. Low and high doses were chosen from the linear portion of the dose-responsive curve. For the salmon calcitonin standard, the values were 0.7 and 2.1 mcg. peptide/100 g. body weight (BW). This dose approximates 3 and 9 MU/100 g. BW. Peptides were given by subcutaneous injection (0.2 ml/100 g. BW) and blood was withdrawn 1 hour later for serum calcium determination. Sera are processed and analyzed within two hours of collection. Results were analyzed within two hours of collection.

[2] = literature values; cited from earlier work

Molecule: CC(C)C[C@H](NC(=O)[C@H](CCCCN)NC(=O)CNC(=O)[C@H](CC(C)C)NC(=O)[C@@H](NC(=O)[C@@H]1CSSC[C@H](N)C(=O)N[C@@H](CO)C(=O)N[C@@H](CC(N)=O)C(=O)N[C@@H](CC(C)C)C(=O)N[C@@H](CO)C(=O)N[C@@H]([C@@H](C)O)C(=O)N1)C(C)C)C(=O)N[C@@H](CO)C(=O)N[C@@H](CCC(N)=O)C(=O)N[C@@H](CCC(=O)O)C(=O)N[C@@H](CC(C)C)C(=O)N[C@@H](Cc1c[nH]cn1)C(=O)N[C@@H](CCCCN)C(=O)N[C@@H](CC(C)C)C(=O)N[C@@H](CCC(N)=O)C(=O)N[C@H](C(=O)N[C@@H](Cc1ccc(O)cc1)C(=O)N1CCC[C@H]1C(=O)N[C@@H](CCCNC(=N)N)C(=O)N[C@H](C(=O)N[C@@H](CC(N)=O)C(=O)N[C@H](C(=O)NCC(=O)N[C@@H](CO)C(=O)NCC(=O)N[C@H](C(=O)N1CCC[C@H]1C(N)=O)[C@@H](C)O)[C@@H](C)O)[C@@H](C)O)[C@@H](C)O [standard salmon calcitonin, Salmon calcitonin]
- potency content of the standard ([1]; standard used in the assay, independently determined): greater than 4,000 IU/mg

Molecule: (1,7-α-L-amino-suberic acid)eel calcitonin
- hypocalcemic potency [2]: about 3400 Iu/mg

Molecule: CC(C)C[C@H](NC(=O)[C@H](CCCCN)NC(=O)CNC(=O)[C@H](CC(C)C)NC(=O)[C@@H](NC(=O)[C@@H]1CSSC[C@H](N)C(=O)N[C@@H](CO)C(=O)N[C@@H](CC(N)=O)C(=O)N[C@@H](CC(C)C)C(=O)N[C@@H](CO)C(=O)N[C@@H]([C@@H](C)O)C(=O)N1)C(C)C)C(=O)N[C@@H](CO)C(=O)N[C@@H](CCC(N)=O)C(=O)N[C@@H](CCC(=O)O)C(=O)N[C@@H](C)C(=O)N[C@@H](Cc1c[nH]cn1)C(=O)N[C@@H](CCCCN)C(=O)N[C@@H](C)C(=O)N[C@@H](CCC(N)=O)C(=O)N[C@H](C(=O)N[C@@H](Cc1ccc(O)cc1)C(=O)N1CCC[C@H]1C(=O)N[C@@H](CCCNC(=N)N)C(=O)N[C@H](C(=O)N[C@@H](CC(N)=O)C(=O)N[C@H](C(=O)NCC(=O)N[C@@H](CO)C(=O)NCC(=O)N[C@H](C(=O)N1CCC[C@H]1C(N)=O)[C@@H](C)O)[C@@H](C)O)[C@@H](C)O)[C@@H](C)O [[Di-Ala^16,19]SCT, [16,19-Di-Alanine]salmon calcitonin] (H-CSNLSTCVLGKLSQEAHKAQTYPRTNTGSGTP-NH2; disulfide 1-7)
- biological potency ([1]; rat, in vivo, sc): 7200 IU/mg
